Publication PMC11788587, “Validating Low‐Dose Iohexol as a Marker for Glomerular Filtration Rate by In Vitro and In Vivo Studies” (Clinical and Translational Science, 2025)

Key:
hOAT3 = molecular target: T1, hOAT3 (Homo sapiens, UniProt Q8TCC7); assay: Substrate assessment: iohexol uptake in 293 cells expressing hOAT3 vs control; assay type: in vitro ADME; conditions: 10 μM iohexol, median (95% CI)
T1 construct: expressed in transfected cells; host or cells: HEK-293 (293) cells, pEBTetD plasmid, doxycycline-induced
T1 sequence (Q8TCC7 1-542): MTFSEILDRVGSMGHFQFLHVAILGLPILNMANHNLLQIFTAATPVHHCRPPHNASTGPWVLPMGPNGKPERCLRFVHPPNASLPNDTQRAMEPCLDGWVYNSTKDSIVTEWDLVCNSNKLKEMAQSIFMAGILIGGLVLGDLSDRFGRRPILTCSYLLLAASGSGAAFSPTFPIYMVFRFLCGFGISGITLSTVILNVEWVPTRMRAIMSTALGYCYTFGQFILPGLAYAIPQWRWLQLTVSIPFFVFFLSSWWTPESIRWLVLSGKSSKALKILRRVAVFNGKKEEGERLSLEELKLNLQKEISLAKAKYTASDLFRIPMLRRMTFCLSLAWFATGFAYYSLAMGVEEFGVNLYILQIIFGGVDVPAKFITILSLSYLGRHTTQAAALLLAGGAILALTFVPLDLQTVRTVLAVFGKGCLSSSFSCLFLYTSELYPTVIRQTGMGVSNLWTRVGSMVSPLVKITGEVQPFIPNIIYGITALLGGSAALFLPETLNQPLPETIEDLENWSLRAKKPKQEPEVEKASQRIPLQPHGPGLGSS
Source text: (§1) We characterized the inhibitory potential of iohexol on major drug transporters recommended by regulatory agencies, which were previously assessed in a clinical transporter phenotyping cocktail study. These transporters include hOAT1, hOAT3, hOCT1, hOCT2, hMATE1, hMATE2K, human organic anion transporter polypeptides (hOATP)1B1, hOATP1B3, and human multidrug resistance protein (hMDR)1. Additionally, we investigated whether iohexol is a substrate for any of the renal transporters among these, including hOAT1/3, hOCT1/2, and hMATE1/2K. Cell‐based uptake assays were used to assess the activities of hOAT1/3, hOCT1/2, hMATE1/2K, and hOATP1B1/1B3. Inside‐out membrane vesicle uptake assays were used to evaluate the activity of hMDR1.
For substrate assessments, iohexol was incubated with stably transfected HEK‐293 cells expressing one of the following transporters: hOAT1, hOAT3, hOCT1, hOCT2, hMATE1, or hMATE2K, as well as with control cells lacking transporter expression. Stably transfected cell lines containing pEBTetD plasmids with wild‐type human transporter cDNAs were generated as previously described. Transporter expression was induced by adding 1 μg/mL doxycycline to the growth medium for at least 20 h. Iohexol would be considered a substrate for these transporters if: (1) the ratio of iohexol uptake in cells expressing the transporter to that in control cells was ≥ 2, and (2) a known inhibitor of the transporter reduced iohexol uptake to ≤ 50% at concentrations ≥ 10 times its inhibition constant or half‐maximal inhibitory concentration.
Uptake assays were performed using stably transfected 293 cells, with or without the expression of one of the following transporters: hOAT1, hOAT3, hOCT1, hOCT2, hMATE1, or hMATE2K, as previously described.^1
For the substrate assessment, cells were incubated with 10 µM iohexol for 10 minutes and 30 minutes for each transporter. Inhibition assays were performed using specific standard substrates for each transporter: 10 µM para-aminohippuric acid (PAH) for hOAT1, 3 µM estrone-3-sulfate (E3S) for hOAT3, 50 µM metformin for hOCT1, 5 µM metformin for hOCT2, and 3 µM 1-methyl-4-phenylpyridinium (MPP+) for hMATE1 and hMATE2K. […]
R version 4.2.1 (R Foundation for Statistical Computing, Vienna, Austria) was used for statistical evaluations and data visualization. The data analysis approach for the in vitro study was detailed by Hsin CH et al..^1 In brief, for transport assays, the initial uptake rate was calculated by normalizing the substrate concentration to both the protein concentration and the incubation time for each dish or well. The transporter-mediated uptake rate (net uptake) was determined by performing an element-wise subtraction of uptake rates from different conditions. […]

[1] = tested on: hOAT1/3, hOCT1/2, hMATE1/2K, hOATP1B1/3, and hMDR1; assay: Inhibition assays, summary across all transporters; assay type: cell-based, human
Source text: as §1
To determine the maximal inhibitory potential of iohexol, intracellular accumulation of a standard substrate was measured with and without the clinically relevant highest concentrations of iohexol. Control inhibitors were tested in each experiment.
According to guidelines for assessing TDDIs after intravenous administration, the highest test concentration should be up to 50 times the unbound maximal plasma concentration (Cmax). […]
In all subsequent in vitro studies, control experiments were conducted to validate the results. […] Each condition, including cells or vesicles with the transporter and their respective controls, was analyzed in at least three replicates. […]

Differences in intracellular accumulation (expression on minus off) (hOAT3; 10 minutes): 0.6 (0.1 to 2) pmol/mg protein
Uptake ratio (transporter-expressing vs non-expressing cells) (hOAT3; 10 minutes): 1.1 (1 to 1.4)
Differences in intracellular accumulation (expression on minus off) (hOAT3; 30 minutes): 0.89 (0.19 to 1.5) pmol/mg protein
Uptake ratio (transporter-expressing vs non-expressing cells) (hOAT3; 30 minutes): 1.2 (1.1 to 1.3)
SMILES: CC(=O)N(CC(O)CO)c1c(I)c(C(=O)NCC(O)CO)c(I)c(C(=O)NCC(O)CO)c1I (stereo not drawn) [iohexol]
Inhibitor of the transporters (conclusion) ([1]; in vitro, 1–20 mM iohexol): neither a substrate nor a significant inhibitor
Inhibitory effect on transporter-mediated uptake of standard substrates ([1]; iohexol 1 mM and 2 mM): no significant inhibitory effect
